Test results as given in patent US20100184853A1, “TERPENES WITH ANTIFUNGAL ACTIVITY AGAINST MALASSEZIA YEASTS” (INSTITUTO BIOMAR, S.A., priority 2007, published 2010).

Test system: Malassezia furfur CBS 1878
Assay: Antifungal disk diffusion susceptibility test
Assay type: cell-based
Details: 15 nmol per 6 mm paper disc; ML2 plates; two days at 30° C.
Experimental: Antifungal activity was tested against Malassezia furfur CBS 1878.
Malassezia furfur was grown on ML2 agar plates containing potato dextrose agar 4.2%, ox bile 0.8%, glycerol 1% (v:v), olive oil 1% (v:v), tween 60 0.5% (v:v) for two days, at 30° C., as stock culture.
An area of 2 cm^2 of a growing plate of Malassezia furfur stock culture was scraped using a sterile loop. Biomass was homogenated in 1 ml glycerol 20%. A volume of 100 μl of the glycerol homogenate was spread on testing ML2 plates.
Each test compound was dissolved in distilled water and added on blank paper discs (6 mm, diameter) on the inoculated plates. Plates were incubated for two days at 30° C. Inhibition circles around the discs (halo) were used as activity measure.
Ketoconazol was used as inhibition control.
The test was carried out at 15 nmol for each compound. Antifungal activities are shown at table 1.

Q: `COC1C(=O)CCC(O)(CCl)C1(O)C1(C)OC1CC=C(C)C` (stereo not shown) [Chlovalicin] was tested. Which “Halo (inhibition circle around the disc)” value did it give?
A: Its value is 35 mm.

Q: For `CO[C@@H]1[C@H](OC(=O)/C=C/C=C/C=C/C=C/C(=O)O)CC[C@]2(CO2)[C@H]1[C@@]1(C)O[C@@H]1CC=C(C)C` [Fumagillin], which “Halo (inhibition circle around the disc)” value is on record?
A: The value was 27 mm.

Q: How did the “Halo (inhibition circle around the disc)” value turn out when `CC(=O)N1CCN(c2ccc(OCC3COC(Cn4ccnc4)(c4ccc(Cl)cc4Cl)O3)cc2)CC1` (stereo not shown) [Ketoconazol] was run?
A: Its value is 23 mm.

Q: `CO[C@@H]1C(=O)CC[C@]2(CO2)[C@@]1(O)[C@@]1(C)O[C@@H]1CC=C(C)C` [Ovalicin] was tested. Which “Halo (inhibition circle around the disc)” value did it give?
A: Its value is 46 mm.
